Laboratory results reported in patent publication US11617726B2, “Method for preventing, treating, or ameliorating a microbial infection” (priority 2018, dated 2023).

Tests used:
Assay type in all cases: cell-based
[1] = tested on: Acinetobacter baumannii isolates; test: Antimicrobial susceptibility test, disc diffusion method (CLSI M100-S24); design: key to Inhibition zone: “NZ” indicated that no zone of inhibition was observed; details: disc diffusion
Outline: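 Disc diffusion per CLSI M100-S24 on 33 MDR clinical A. baumannii isolates from burn wards; 0.5 McFarland inoculum swabbed onto Mueller-Hinton agar, incubated aerobically 35-37° C, 18-20 h. Zone diameters measured to nearest mm and categorized S/I/R by CLSI breakpoints.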

[2] = tested on: Acinetobacter baumannii isolates and Acinetobacter baumannii ATCC BAA 747; test: MIC determination by broth dilution method (CLSI M07-A9)
Experimental: (§1) Minimum Inhibitory Concentration (MIC) is the lowest concentration of an antimicrobial agent that prevents visible growth of a microorganism in an agar or broth dilution susceptibility test. MIC of thymoquinone was determined by the broth dilution method against 33 MDR Acinetobacter baumannii strains and standard sensitive culture collection strain of Acinetobacter baumannii and Pseudomonas aeruginosa. The MIC of gentamicin was deter lined by broth dilution method against six MDR Acinetobacter baumannii strains and standard sensitive culture collection strains of Acinetobacter baumannii and Pseudomonas aeruginosa. MIC testing was performed according to the recommendations and guidelines of Clinical Laboratory Standard Institutes (CLSI M07-A9; 2012). Clinical and Laboratory Standards Institute (CLSI), “Methods for Dilution Antimicrobial Susceptibility Tests for Bacteria That Grow Aerobically; Approved Standard,” Document M07-A9, Clinical and Laboratory Standards Institute (CLSI), Wayne, Pa., USA, 2012.
(§2) Twenty-one grams of Mueller-Hinton Broth (MHB) was suspended in 1 Liter distilled water and then boiled to dissolve the powder completely. The medium was sterilized by autoclaving at 121° C. for 15 min. After autoclaving, the medium was cooled to room temperature before use or stored in the fridge until used.
(§3) Thymoquinone was weighed and dissolved in Dimethyl sulfoxide (DMSO) to produce a thymoquinone stock solution with a concentration of 5,120 μg/ml. Gentamicin sulfate was weighed and dissolved in water to produce a gentamicin sulfate stock solution with a concentration of 5,120 μg/ml, equivalent to gentamicin base.
(§4) Dilutions of thymoquinone and gentamicin sulfate stock solutions were prepared volumetrically in the MHB as follows:
(§5) One mL of original stock solution (5,120 μg/ml) was added to 9 ml sterile MHB to give the working first dilution (512 μg/mL). 12 sterile 7 mL PJ tubes were arranged in a rack in a row. Each tube contained one mL sterile MHB. Ten tubes were labeled as 128 μg/mL, 64 μg/mL, 32 μg/mL, 16 μg/mL, 8 μg/mL, 4 μg/mL, 2 μg/mL, 1 μg/mL, 0.5 μg/mL and 0.25 μg/mL. The eleventh and twelfth tubes were labeled as positive and negative control, respectively.
(§6) The working dilution (512 μg/mL) was serially diluted to give two-fold dilutions. One mL of the working dilution (512 μg/mL) was dispensed in the first tube (labeled as 128 μg/mL) to give a concentration of 256 μg drug/mL MHB. One mL of the first tube was added to the second tube (labeled as 64 μg/mL) to give a concentration of 128 μg drug/mL MHB. One mL of the second tube was transferred to the third tube (labeled as 32 μg/mL) to give a concentration of 64 μg drug/mL MHB. One mL of the third tube was added to the fourth tube (labeled as 16 μg/mL) to give a concentration of 32 μg drug/mL MHB. One mL of the fourth tube was dispensed in the fifth tube (labeled as 8 μg/mL) to give a concentration of 16 μg drug/mL MHB. One mL of the fifth tube was dispensed in the sixth tube (labeled as 4 μg/mL) to give a concentration of 8 μg drug/mL MHB. One mL of the sixth tube was added to the seventh tube (labeled as 2 μg/mL) to give a concentration of 4 μg drug/mL MHB. One mL of the seventh tube was added to the eighth tube (labeled as 1 μg/mL) to give a concentration of 2 μg drug/mL MHB. One mL of the eighth tube was transferred to the ninth tube (labeled as 0.5 μg/mL) to give a concentration of 1 μg drug/mL MHB. One mL of the ninth tube was transferred to the tenth tube (labeled as 0.25 μg/mL) to give a concentration of 0.5 μg drug/mL MHB. The contents were mixed thoroughly by pipetting up and down three times. One mL of the content of the tenth tube was discarded.
(§7) The inoculum suspensions (at 1-2×10^8 CFU/mL) were diluted 1:100 in MHB to obtain 1×10^6 CFU/mL. One mL of the diluted inoculum suspension (1×10^6 CFU/mL) was transferred to each tube except tube 12.
(§8) All inoculated tubes were incubated for 16-20 hours at 37° C. aerobically. […]

[3] = tested on: Pseudomonas aeruginosa ATCC 27853; test: as above; details: P. aeruginosa ATCC 27853
Experimental: as §1, §2, §3, §4, §5, §6, §7, §8

| Compound | Inhibition zone ([1]; isolate AB1) | Inhibition zone ([1]; isolate AB2) | Inhibition zone ([1]; isolate AB3) | Inhibition zone ([1]; isolate AB4) | Inhibition zone ([1]; isolate AB5) | Inhibition zone ([1]; isolate AB6) | Inhibition zone ([1]; isolate AB7) | Inhibition zone ([1]; isolate AB8) | Inhibition zone ([1]; isolate AB9) | Inhibition zone ([1]; isolate AB10) | Inhibition zone ([1]; isolate AB11) | Inhibition zone ([1]; isolate AB12) | Inhibition zone ([1]; isolate AB13) | Inhibition zone ([1]; isolate AB14) | Inhibition zone ([1]; isolate AB15) | Inhibition zone ([1]; isolate AB16) | Inhibition zone ([1]; isolate AB17) | Inhibition zone ([1]; isolate AB18) | Inhibition zone ([1]; isolate AB19) | Inhibition zone ([1]; isolate AB20) | other results |
| --- | --- | --- | --- | --- | --- | --- | --- | --- | --- | --- | --- | --- | --- | --- | --- | --- | --- | --- | --- | --- | --- |
| CN(C)[C@@H]1C(O)=C(C(N)=O)C(=O)[C@@]2(O)C(O)=C3C(=O)c4c(O)cccc4[C@@](C)(O)[C@H]3C[C@@H]12 [TET, Tetracycline] | NZ | 22 mm | 22 mm | 21 mm | NZ | NZ | 21 mm | 26 mm | 23 mm | NZ | NZ | NZ | NZ | 24 mm | 19 mm | NZ | 21 mm | 20 mm | 17 mm | 28 mm | Inhibition zone ([1]; isolate AB21): 19 mm; Inhibition zone ([1]; isolate AB22): 20 mm; Inhibition zone ([1]; isolate AB23): 23 mm; Inhibition zone ([1]; isolate AB24): 19 mm; Inhibition zone ([1]; isolate AB25): 25 mm; Inhibition zone ([1]; isolate AB26): NZ; Inhibition zone ([1]; isolate AB27): 8 mm; Inhibition zone ([1]; isolate AB28): 20 mm; Inhibition zone ([1]; isolate AB29): 19 mm; Inhibition zone ([1]; isolate AB30): 20 mm; Inhibition zone ([1]; isolate AB31): NZ; Inhibition zone ([1]; isolate AB32): 28 mm; Inhibition zone ([1]; isolate AB33): 24 mm |
| Gentamicin | 24 mm | 20 mm | 24 mm | 22 mm | 15 mm | 26 mm | NZ | NZ | 21 mm | NZ | NZ | 12 mm | NZ | NZ | 20 mm | 18 mm | 24 mm | 17 mm | 20 mm | NZ | Inhibition zone ([1]; isolate AB21): 17 mm; Inhibition zone ([1]; isolate AB22): NZ; Inhibition zone ([1]; isolate AB23): NZ; Inhibition zone ([1]; isolate AB24): 19 mm; Inhibition zone ([1]; isolate AB25): 19 mm; Inhibition zone ([1]; isolate AB26): NZ; Inhibition zone ([1]; isolate AB27): 8 mm; Inhibition zone ([1]; isolate AB28): 20 mm; Inhibition zone ([1]; isolate AB29): 20 mm; Inhibition zone ([1]; isolate AB30): 20 mm; Inhibition zone ([1]; isolate AB31): 8 mm; Inhibition zone ([1]; isolate AB32): NZ; Inhibition zone ([1]; isolate AB33): 20 mm |
| Gentamicin sulfate | – | – | – | – | – | – | – | – | – | – | – | – | – | – | – | – | – | – | – | – | MIC ([2]; A. baumannii ATCC BAA 747 (standard sensitive strain)): 1 µg/mL; MIC ([2]; isolate AB7): 32 µg/mL; MIC ([2]; isolate AB8): 64 µg/mL; MIC ([2]; isolate AB10): 32 µg/mL; MIC ([2]; isolate AB11): 32 µg/mL; MIC ([2]; isolate AB12): 32 µg/mL; MIC ([2]; isolate AB13): 32 µg/mL; MIC [3]: ≤2 µg/mL |
